Laboratory results from patent publication US4714699A, “2-tolylmorpholine derivatives and pharmaceutical compositions” (Societe Anonyme Dite: Laboratoire L. Lafon, priority 1983, dated 1987).
“Also recorded” adds a separate entry of the source.

Tests used:
[1] = cardiovascular study in dogs; type: in vivo
[2] = pretoxicity (LD-O, maximum non-lethal dose); type: in vivo, male mice; details: intraperitoneally, male mice
Procedure: (§1) In the following tests, CRL 40 875, in solution in distilled water, was administered intraperitoneally in a volume of 20 ml/kg to male mice and 5 ml/kg to male rats.
(§2) In the following tests, CRL 40 897, in solution in distilled water (pH 4), was administered intraperitoneally in a volume of 20 ml/kg to male mice and in a volume of 5 ml/kg to male rats, the procedures being those given above for CRL 40 875.
(§3) In the tests undertaken, CRL 40 912, in solution in distilled water (pH 4.5), was administered intraperitoneally in a volume of 20 ml/kg to male mice and in a volume of 5 ml/kg to male rats, the procedures being those given above for CRL 40 875.
(§4) The toxicological and neuropsychopharmacological studies undertaken in accordance with the procedures described above for CRL 40 875 enabled the following observations to be made: […]

[3] = overall behavior and reactivities in mice; type: in vivo, male mice; details: 64 mg/kg i.p.
Procedure: as §1
Groups of three mice are observed before and then 15 minutes, 30 minutes, 1 hour, 2 hours, 3 hours and 24 hours after the administration of CRL 40 875.
as §2, §4

[4] = neuropsychopharmacological study, overall findings; type: in vivo, mice, rats; details: for sedative effects: weak doses where stated
Procedure: as §1, §2, §3, §4

[5] = motility reduced by habituation to the enclosure; type: in vivo, male mice; details: i.p.
Procedure: as §1
After they have stayed in the actimeters for 18 hours, the mice (6 per dose, 12 control animals) receive CRL 40 875. They are immediately returned to their respective enclosures and, half an hour later, their motility is recorded for 30 minutes.
as §2, §3

[6] = action on the intergroup aggressiveness; type: in vivo, male mice; details: i.p., mice
Procedure: as §1
After they have stayed for 3 weeks in the two halves of a cage divided by an opaque partition, groups of 3 mice receive CRL 40 875. Half an hour later, the two groups from the same cage are brought together by removal of the partition, and the number of fights which occur in 10 minutes is noted.
as §2, §3

[7] = interaction with reserpine; type: in vivo, male mice; details: i.p.
Procedure: as §1
Four hours after the intraperitoneal injection of 2.5 mg/kg of reserpine, groups of 6 mice receive CRL 40 875. The effects on the temperature and ptosis are observed.
as §2, §3

[8] = interaction with apomorphine in mice; type: in vivo, male mice; details: strong dose, i.p.
Procedure: as §1
Groups of 6 mice receive CRL 40 875 0.5 hour before the subcutaneous injection of 1 or 16 mg/kg of apomorphine.
as §2, §3

[9] = interaction with amphetamine; type: in vivo, male rats; details: i.p.; 2 mg/kg amphetamine; rats
Procedure: as §1, §2, §3

[10] = interaction with oxotremorine; type: in vivo, male mice; details: strong dose, i.p.
Procedure: as §1
CRL 40 875 is administered to groups of 6 mice half an hour before the intraperitoneal injection of 0.5 mg/kg of oxotremorine.
as §2, §3

[11] = cardiovascular study in rats; type: in vivo; details: wake rats
α-adrenergic = α-adrenergic stimulation; details: in vivo; hydrochloride
[12] = clinical trials, treatment of depressions; type: in vivo; details: man
Source text: In clinical trials, good results were obtained on man with CRL 40 875 (Example 1), CRL 40 912 (Example 2) and CRL 40 897 (Example 3) in the treatment of depressions.

[13] = asphyxiant anoxia (gallamine triiodoethylate); type: in vivo, male mice; details: i.p., mice
Procedure: as §1
Groups of 20 mice receive CRL 40 875 half an hour before the intraperitoneal administration of 32 mg/kg of gallamine triidoethylate (which is a reference curarizing agent).
as §2, §3

[14] = anesthetized dogs, intraduodenal (CRL 40 903: then intravenous)
[15] = intraduodenal, anesthetized dogs

Cc1ccccc1C1CN(C(C)(C)C)CCO1 (stereo not drawn) [CRL 40 910, 2-o-tolyl-4-tert.-butylmorpholine]
femoral and vertebral flow rates ([1]; 0.5 mg/kg intraduodenally, anesthetized dogs): significantly increases the femoral and vertebral flow rates
effect of propanolol on the increase in femoral flow rate ([1]; anesthetized dogs, intraduodenal): not totally inhibited by propanolol
dose as from which tachycardia appears [1, 14]: 1 mg/kg
effect on the hypertension induced by noradrenaline [1, 14]: reduces the hypertension induced by noradrenaline
effect on the hypotension / effects of isoprenaline [1, 14]: does not modify the effects of isoprenaline
vasodilator property ([1]; dog, in vivo): particularly interesting as vasodilators
effect on respiration [1, 15]: stimulates respiration in dogs
rectal and skin temperatures [1, 15]: increase progressively
tachycardia, degree [1, 15]: remains weak
venous pressure [1, 15]: increase progressively, as does the venous pressure
effect of propanolol on the effects on heart beat and vertebral flow rate ([1]; propanolol 1 mg/kg intravenously, anesthetized dogs): antagonized by propanolol
LD-O (maximum non-lethal dose) [2]: greater than 128 mg/kg
hypothermia ([3]; male mice): moderate hypothermia
duration of hypothermia ([3]; mice): 0.5 h
sedative effects [4]: sedative effects

Cc1cccc(C2CN(C)CCO2)c1.Cl (stereo not drawn) [CRL 40 912, 2-m-tolyl-4-methylmorpholine hydrochloride]
resumption in the activity of mice accustomed to their enclosure [5]: does not cause a resumption in the motor activity of mice accustomed to their enclosure
effect on aggressiveness / number of fights [6]: reduction of aggressiveness
effect on the ptosis induced by reserpine ([7]; mice): significant antagonism of the ptosis induced by reserpine
effect on the hypothermic effects of reserpine ([7]; weaker dose): opposes those of reserpine
effect on blood pressure ([1]; 1 mg/kg i.p., anesthetized dogs): hypertensive agent
effect on hypertensive action ([1]; 5 mg/kg i.p., anesthetized dogs): this effect decreases
dose as from which bradycardia is caused ([1]; i.p., anesthetized dogs): ≥ 5 mg/kg
variation of sedative effects with dose ([4]; in vivo): increase continuously with the dose administered, up to a maximum value, and then decrease continuously and progressively as the dose increases
antidepressant effects ([4]; strong doses, hydrochloride): antidepressant at a strong dose; also recorded: antidepressants at strong doses
sedative effects ([4]; hydrochloride): sedative effects (hypomotility, hypothermia) comparable to those of α-adrenergic blocking substances or to clonidine; also recorded: acts as a sedative at a weak dose; also recorded: sedative effects (hypomotility, hypothermia, reduction of intergroup aggressiveness
effect on the hypothermic effects of apomorphine [8]: opposes the hypothermic effects of apomorphine
effect on stereotypies induced by amphetamine [9]: does not reduce the intensity of the stereotypies induced by amphetamine
effect on the temperature drop caused by oxotremorine [10]: opposes the hypothermic effects of apomorphine and oxotremorine
bradycardia [11]: bradycardia is of short duration
mean blood pressure [11]: no action on the mean blood pressure
α-adrenergic stimulant effect (α-adrenergic): effect of the α-stimulant type; also recorded: very distinct peripheral α-adrenergic stimulant action (piloerection, exophthalmos, significant antagonism of the ptosis induced by reserpine); also recorded: stimulant effects, especially of the α-adrenergic type
results in the treatment of depressions [12]: good results
time taken for convulsions and death to occur following asphyxiant anoxia [13]: delay in the time taken for convulsions and death to occur
